The values below come from publication PMC12662929, “MR2938 relieves DSS-induced colitis in mice through inhibiting NF-κB signaling and improving epithelial barrier” (Marine Life Science & Technology, 2025).

Data set [1] relates to DSS-induced colitis C57BL/6 mice. Nature of the data set: Acute DSS-induced murine colitis model. Format: in vivo, mouse. Particulars: for body weight: MR2938 50 or 100 mg/kg or 5-ASA 100 mg/kg, oral. As for the experimental part:
After 1 week of acclimation, the C57BL/6 mice were randomly divided into the following groups (n = 6/group): control group, model group (DSS), DSS + 5-aminosalicylic acid (5-ASA, positive group, 100 mg/kg), DSS + MR2938 (100 mg/kg) and DSS + MR2938 (50 mg/kg). Colitis was induced by administration of 3% DSS drinking water for 5 consecutive days. Water consumption was monitored daily. At the same time, the mice in each group were given the corresponding agents: 5-ASA (100 mg/kg) and MR2938 (50 mg/kg or 100 mg/kg). The dosages of 5-ASA and MR2938 were adopted based on previous reports and our pilot trial. MR2938 or 5-ASA was dissolved in a mixture of saline and DMSO (95:5) to provide the desired concentrations.
Changes in bodyweight were assessed daily over the 9-day experimental period. On the last day of the experiment, mice were sacrificed, and the entire colon was excised. Colon length was measured and gently washed with physiological saline. Then two pieces with 0.5 cm in length of the distal section were used for histological assessment and immunofluorescence staining. The remaining colon tissue samples were used to determine MPO activity and the concentrations of cytokines.
Distal colons were harvested, fixed in 4% paraformaldehyde, and embedded in paraffin. Five-μm-thick tissue sections were stained with hematoxylin and eosin (HE) for light microscopic examination using a DP73 light microscope (Olympus, Tokyo, Japan). Colonic mucosa damage score was assessed as previously described. To count colonic goblet cells, fixed colonic tissues were also stained in Alcian blue for 10–15 min and dehydrated with 100% alcohol and xylene, followed by image acquisition on a microscope.
The serum was obtained from the collected blood samples through centrifugation at 3500 g for 15 min at 4 °C. A portion of frozen colon samples was homogenized with RIPA lysis buffer (Solarbio, Beijing, China) to extract total proteins. The homogenate was centrifuged at 12,000 × g at 4 °C for 15 min. The protein contents were quantified using a bicinchoninic acid (BCA) protein assay kit (Solarbio, Beijing, China) according to the manufacturer’s instructions. The concentrations of proinflammatory cytokines IL-1β, IL-6, and TNF-α in the serum and colon tissue were measured by ELISA (Jingmei Biotech, China) according to the manufacturers’ recommendations. MPO activity was measured using a myeloperoxidase assay kit (Jingmei Biotech, China).
(§1) Total RNAs of colon tissues were extracted using tissue RNA kit (Omega Biotek, China) following the manufacturer’s protocol. cDNA was obtained from RNA samples using ReverTra Ace qPCR RT Master Mix with gDNA Remover (TOYOBO, Japan). Quantitative real-time PCR was performed by Applied Biosystems® QuantStudio Q5 instrument (Thermo, USA) with SYBR qPCR Master Mix (Vazyme, China). The relative gene expression was measured and normalized to β-actin expression using 2^−ΔΔCt method.
(§2) For immunofluorescence staining, the frozen colon slides or cells were fixed in 4% paraformaldehyde, permeabilized with 0.1% Triton X-100, blocked non-specific proteins in 5% BSA/PBS for 1 h, and incubated overnight at 4 °C with Occludin, ZO-1 or p65 primary antibodies. The slides were then washed with phosphate buffer (PBS) and incubated with Dylight 488 labeling secondary antibody for 1 h at room temperature. Finally, the colon slides were stained with DAPI for 10 min, and then imaged and captured using ECHO microscope.

In data set [2] the test system is NF-κB signaling in Raw264.7 cells. Nature of the data set: LPS-induced inflammation / NF-κB signaling in Raw264.7 macrophages. In kind it is cell-based. The method, then:
Raw264.7 cells and Caco-2 cells were obtained from the Cell Bank of the Chinese Academy of Sciences (Shanghai, China) and cultured in high-glucose DMEM medium supplemented with 10% fetal bovine serum (FBS) at 37 ℃ in a 5% CO2 atmosphere. Raw264.7 cells were seeded and incubated in six-well plates (8 × 10^5 cells/well) overnight, and then treated with different concentrations of MR2938 for 2 h. Then Raw264.7 cells were activated by lipopolysaccharide (LPS, 100 ng/mL, Sigma-Aldrich Co., Shanghai, CN) for 2 h or 6 h for transcription or protein level analysis.
as §1, §2
Total proteins were extracted with RIPA lysis buffer. After determining the protein concentration by the BCA assay kit, an equal amount of protein was subjected to SDS-PAGE and electro-transferred to a PVDF membrane. The membrane was immune detected with specific antibodies overnight at 4 °C. Proteins were quantified by Image J software. The target antibodies against p65, phosphorylated p65, IκBα, p-IκBα, TLR4, NLRP3, caspase-1, IL-1β, and β-actin were purchased from Proteintech or Cell Signaling Technology.

For data set [3], the system named is proinflammatory cytokines mRNA. The arrangement: method as in Lv et al. 2023. Particulars: 2.5 μmol/L; ref Lv et al. 2023; cited from earlier work.
The nature of data set [4]: Brain permeability in mice after i.p. administration. Format: in vivo, mouse. The conditions noted are these: n=3. The method, then:
Table S2. Concentration of MR2938 in brain after its i.p. administration (6.5 mg/kg)

The subject of another data set is NO production. The arrangement: method as in Lv et al. 2023. Particulars: ref Lv et al. 2023; cited from earlier work.
Data set [5] is described as follows: In vivo PK study in SD rats. Particulars: plasma, rat. As for the experimental part:
MR2938 was synthesized in-house following previously reported procedure (Lv et al. [2023]), and confirmed by NMR and HPLC chromatography (purity > 95%). To detect the pharmacokinetic characters of MR2938 in the plasma, the SD rats were orally and intravenous (i.v.) administered with MR2938 at a dose of 10 mg/kg and 3 mg/kg, respectively. The vehicle consisted of 10% DMSO, 30% saline, and 60% PEG400. Plasma samples were collected at 5 min, 15 min, 30 min and 1 h, 2 h, 4 h, 6 h, 8 h, 12 h, and 24 h after administration. After analyzing the concentration of MR2938 via LC–MS, the values of Cmax, Tmax, T1/2, Cl, AUClast, and AUCInf were calculated (Hu et al. [2018]). The bioavailability of MR2938 from the p.o. was calculated by comparing the area under the concentration–time curve (AUCInf) for the […] dose and that for the i.v. dose.

A further data set has as its system AChE. Set-up: method as in Lv et al. 2023. Particulars: ref Lv et al. 2023; cited from earlier work.
Another data set has as its system Caco-2 cells. Nature of the data set: LPS-induced tight junction disruption in Caco-2 cells (immunofluorescence). Format: cell-based. As for the experimental part:
Caco-2 cells were seeded and incubated in 24-well plates (1 × 10^5 cells/well) for 48 h and treated with 10 μmol/L of MR2938 for 2 h. Then 100 ng/mL of LPS was added for 24 h to induce tight function disruption.
as §2

For the molecule `Nc1ccc(O)c(C(=O)O)c1` [5-ASA, 5-aminosalicylic acid, reference compound], the body weight entry in data set [1] (3% DSS) is “marked improvement”.

`O=C(c1ccc(Nc2nccc(-c3cc4ccccc4s3)n2)cc1)N1CCC(N2CCCC2)CC1` [IKK16, reference compound]: the “LPS-elevated expression level of NLRP3” value in data set [2] (western blot, NF-κB pathway blocked) was “obviously decreased”.

Usually IC50 stands for the midpoint of a concentration-inhibition curve. For orientation: AUC(0-inf) means total exposure, with the tail of the curve extrapolated. A higher AUC(0-inf) goes with more exposure. By AUC(0-t) is commonly meant exposure summed from dosing to a finite time, without extrapolation to infinity. As usually defined, the Cmax is the peak of the concentration-time curve. A word on the half-life: it is the time in which the quantity being followed falls by half. For orientation: clearance means the volume of plasma or blood freed of the substance per unit of time. For orientation: bioavailability means dose-corrected exposure relative to a reference, in per cent. Broadly, the Tmax is the time at which the peak concentration occurs. With `COc1cc(OC)c2c(=O)[nH]c(-c3ccc(N4CCN(C)CC4)cc3)nc2c1` [MR2938], the “mRNA level of proinflammatory cytokines” value in data set [3] was “significantly decreased”. The Amount in brain in data set [4] (i.p. 6.5 mg/kg (145 μg)) is listed as 236.7 ng. The molecule also yielded a Concentration in brain in data set [4] (i.p. 6.5 mg/kg) of 222.07 ng/g. Moreover, in the data set with NO production, the IC50 was 3.29 µM. Further, in data set [5] (iv, 3 mg/kg i.v., mean n = 3), the AUC(0-inf) came to 1070 ng·h/mL, the area under the curve AUC(0-t) is 1060 ng·h/mL, the concentration peaked (Cmax) at 1030 ng/mL and the half-life was 2.25 h. Also, the clearance in data set [5] (iv, 3 mg/kg i.v., mean n = 3, read-out: Cl (plasma clearance)) worked out at 47.2 mL/min/kg. The bioavailability in data set [5] (oral, 10 mg/kg p.o. vs 3 mg/kg i.v., from AUCInf, read-out: F (oral bioavailability)) is 59%. Besides, in data set [5] (po, 10 mg/kg p.o., mean n = 3), the AUC(0-inf) was 2110 ng·h/mL, the AUC(0-t) is 2080 ng·h/mL, the Cmax stood at 592 ng/mL and the Tmax was 0.667 h. Moreover, the half-life in data set [5] (po, 10 mg/kg p.o., mean n = 3) was 2.87 h. In data set [1] (100 mg/kg), the “Occludin and ZO-1 proteins in colon (immunofluorescence), comparison with 5-ASA” value was “as effective as 5-ASA”. Also, the “mRNA levels of Occludin, ZO-1 and claudin-1 in colon” value in data set [1] (100 mg/kg vs colitis group, no statistical difference) is reported as “upregulated”. In data set [1] (3% DSS, 100 mg/kg oral, similar to control group, significantly longer than 5-ASA group), the “colon length (shortening)” value is listed as “greatly relieved”. In addition, the body weight entry in data set [1] (3% DSS) is recorded as “marked improvement”. Besides, in data set [1] (3% DSS, oral administration), the “inflammatory cell infiltration, mucosal damage and overall colonic damage score (HE histology)” value is on record as “obvious attenuation”. In addition, in data set [1] (DSS-induced), the “concentration of MPO in colon” value is “slight decrease” and the “concentration of MPO in serum” value is “slight decrease”. Moreover, in data set [1] (ELISA, colon tissue), the “colonic level of IL-1β” value was “decreased” and the “colonic level of TNF-α” value was “decreased”. Also, in data set [1] (ELISA, 50 mg/kg and 100 mg/kg), the “IL-1β in mouse serum” value is “significant decrease” and the “TNF-α in mouse serum” value is “significant decrease”. For the same molecule, in data set [1] (ELISA, 50 mg/kg group compared with 100 mg/kg group), the “serum IL-6 level” value is “no statistical difference between the two groups”. Further, in data set [1] (RT-qPCR), the “gene transcription of IL-1β in colon” value is recorded as “noticeably inhibited” and the “gene transcription of TNF-α in colon” value is given as “noticeably inhibited”. Further, the “transcription of IL-6 in colon” value in data set [1] (RT-qPCR, 100 mg/kg, compared with 5-ASA) is “more favorable effects on the transcription of IL-6 than 5-ASA”. In data set [1] (colitis group vs treatment group), the GPx in colon entry is listed as “no significant difference”. Moreover, the “Occludin and ZO-1 proteins in colon (immunofluorescence)” value in data set [1] (dose-dependent, 50 and 100 mg/kg) was “partially alleviate the depletion”. In addition, the “mucin-secreting goblet cells in colonic epithelia (Alcian blue staining)” value in data set [1] (similar to control group) is given as “rescued the differentiation of mucin-producing goblet cells”. Further, the “organ indexes of mice” value in data set [1] (treatment group vs control groups) is “no obvious differences”. Also, the “production of MDA in colon” value in data set [1] (vs DSS group) is “significantly suppressed”. Also, the half-inhibitory concentration (IC50) in the data set with AChE is 5.04 µM. In addition, the “NF-κB fluorescence intensity / subcellular location” value in data set [2] (10 μM pre-treatment, LPS activation, immunofluorescence) is “dropped and was mostly accumulated in the cytoplasm”. Further, the “total p65” value in data set [2] (LPS stimulated, western blot) was “slightly downregulated”. Further, the “phosphorylation of IκBα and p65” value in data set [2] (LPS stimulated, western blot, dose-dependent) is on record as “effectively inhibited”. The “expression of TLR4” value in data set [2] (LPS stimulated, decrease did not correlate to concentration) is reported as “reduced”. The “expressions of IL-1β, NLRP3 and caspase-1 (mRNA and protein)” value in data set [2] (qPCR and western blot, vs LPS stimulated) is “significantly reduced”. The “expression of Occludin and ZO-1” value in the data set on Caco-2 cells (10 μmol/L, LPS 100 ng/mL stimulated) is recorded as “able to rescue expression levels”. For the same molecule, the “Occludin and ZO-1 protein levels” value with Caco-2 cells (MR2938 alone, without LPS) is on record as “little changes”.
